Test results as given in BindingDB's records for doi:10.1021/jm900194w (The Hong Kong Polytechnic University, 2009).

Assay: Reversal of MRP1-mediated doxorubicin-resistance in human HeLa-T5 cells assessed as reduction of doxorubicin IC50 percent by half

## Cc1onc2c1c(=O)n([C@H]1CCC[C@@H](CNC(=O)c3ccccc3)C1)c1cccc(Cl)c21 (racemic) [N-(((1R,3S)-3-(9-chloro-3-methyl-4-oxoisoxazolo[4,3-c]quinolin-5(4H)-yl)cyclohexyl)methyl)benzamide]
  EC50: 93 nM
